Test results reported in patent publication US9120793B2, “Triazolo-pyridine compound” (Eli Lilly and Company, priority 2013, dated 2015).

Experiments:
[1] = target: T1, PPARδ (Homo sapiens, UniProt Q03181); test: PPARδ reporter (CTF)/functional assay in CV1 cells; format: cell-based; conditions: examined up to 10 μM; efficacy <20% considered negative
T1 construct: expressed in transfected cells; host or cells: CV1 (African green monkey kidney)
T1 sequence (Q03181 211-439 limits assumed): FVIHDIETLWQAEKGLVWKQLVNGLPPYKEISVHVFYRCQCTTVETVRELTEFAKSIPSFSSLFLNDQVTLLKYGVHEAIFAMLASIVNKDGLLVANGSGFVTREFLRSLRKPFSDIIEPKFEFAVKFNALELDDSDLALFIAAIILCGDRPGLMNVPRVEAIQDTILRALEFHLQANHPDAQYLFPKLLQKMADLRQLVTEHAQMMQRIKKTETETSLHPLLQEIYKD
From the text: (§1) Because GPR-40 is known to be activated by ligands to PPARγ, exemplified compounds are examined in PPARα, PPARδ, and PPARγ reporter assays to determine the selectivity of an exemplified compound. CV1 cells, which are derived from the renal tissue of an African green monkey, are transfected with various receptor and reporter plasmids using Fugene. For the PPARα and PPARδ assays, a reporter plasmid containing five tandem copies of the yeast transcription protein Gal4 response element, cloned upstream of a firefly luciferase gene driven by the major late promoter of adenovirus, is transfected together with a Simian Virus 40 (SV40) driven plasmid constitutively expressing a hybrid protein containing the Gal4 DNA binding domain (DBD), and either the PPARα or PPARδ ligand binding domain. For the PPARγ assay, plasmids encoding PPARγ and RXRα, both driven by a cytomegalovirus (CMV) promoter are transfected together with a plasmid containing luciferase reporter cDNA driven by the TK promoter and a receptor response element (2×PPRE). […] After 24 hours incubation with compound, cells are lysed and luciferase activity is determined as a measure of receptor activation by luminescence. […] The maximum percent stimulation is determined versus maximum stimulation obtained with 10 μM of an appropriate PPAR agonist reference compound. […]

[2] = target: T2, human GPR-40 (hGPR-40) (Homo sapiens, UniProt O14842); test: Radioligand competition binding, in vitro binding affinity to GPR-40; conditions: 5 nM [3H] TAK-875; membranes of HEK293 cells overexpressing hGPR-40; Cheng-Prusoff
T2 construct: expressed in transfected cells; host or cells: HEK293 (membranes)
From the text: Competition curves are plotted as the percent specific inhibition versus concentration of compound and analyzed using a four parameter nonlinear regression fit with variable slope. […] See Cheng, Y. and Prusoff, W. H. (1973) “Relationship between the inhibition constant (Ki) and the concentration of inhibitor which causes 50 per cent inhibition (IC50) of an enzymatic reaction,” Biochem Pharmacol 22(23):3099-3108. […] (Mean±SEM; SEM=standard error of the mean.).

[3] = target: T3, PPARγ (Homo sapiens, UniProt P37231); test: PPARγ reporter (CTF)/functional assay in CV1 cells; format: cell-based
T3 construct: expressed in transfected cells; host or cells: CV1 (African green monkey kidney)
T3 sequence (P37231 1-505): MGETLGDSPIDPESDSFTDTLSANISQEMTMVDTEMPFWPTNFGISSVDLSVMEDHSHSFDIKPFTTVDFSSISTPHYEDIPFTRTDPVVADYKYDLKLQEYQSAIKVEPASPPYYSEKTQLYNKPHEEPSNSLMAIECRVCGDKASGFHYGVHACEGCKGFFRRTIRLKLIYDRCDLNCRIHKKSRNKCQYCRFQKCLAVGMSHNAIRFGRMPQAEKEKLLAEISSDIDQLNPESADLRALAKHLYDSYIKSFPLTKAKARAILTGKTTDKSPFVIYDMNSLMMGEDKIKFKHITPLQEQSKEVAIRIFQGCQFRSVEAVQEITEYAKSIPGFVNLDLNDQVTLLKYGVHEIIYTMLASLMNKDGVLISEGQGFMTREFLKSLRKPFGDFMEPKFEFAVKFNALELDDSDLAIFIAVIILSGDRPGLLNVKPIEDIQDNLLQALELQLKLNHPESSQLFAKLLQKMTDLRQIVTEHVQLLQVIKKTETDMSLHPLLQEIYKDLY
T3 sequence (P19793 1-462 partner): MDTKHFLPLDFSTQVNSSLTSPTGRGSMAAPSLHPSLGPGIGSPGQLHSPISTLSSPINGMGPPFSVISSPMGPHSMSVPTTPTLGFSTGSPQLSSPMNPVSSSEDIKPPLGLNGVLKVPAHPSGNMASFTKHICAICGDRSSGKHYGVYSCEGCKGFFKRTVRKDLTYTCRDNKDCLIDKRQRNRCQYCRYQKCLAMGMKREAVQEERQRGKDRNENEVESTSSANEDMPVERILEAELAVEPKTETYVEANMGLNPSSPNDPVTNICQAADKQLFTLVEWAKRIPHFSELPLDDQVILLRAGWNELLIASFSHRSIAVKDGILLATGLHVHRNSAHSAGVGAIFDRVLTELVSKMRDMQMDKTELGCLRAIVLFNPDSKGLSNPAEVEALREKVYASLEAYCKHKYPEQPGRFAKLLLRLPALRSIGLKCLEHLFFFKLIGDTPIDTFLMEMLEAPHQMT
From the text: as §1

T2 sequence (O14842 whole entry): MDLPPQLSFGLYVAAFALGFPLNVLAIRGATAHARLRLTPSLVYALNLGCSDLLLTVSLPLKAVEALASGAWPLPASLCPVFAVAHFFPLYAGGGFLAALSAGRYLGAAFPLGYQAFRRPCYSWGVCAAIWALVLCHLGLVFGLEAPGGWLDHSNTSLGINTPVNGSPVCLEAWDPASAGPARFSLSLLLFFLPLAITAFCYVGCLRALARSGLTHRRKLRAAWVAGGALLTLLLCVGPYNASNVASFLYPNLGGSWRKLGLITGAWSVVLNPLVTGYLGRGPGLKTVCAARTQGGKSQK

functional activation of PPARδ [1]: No functional activation
Ki [2]: 14.9 nM
EC50 ([3]; CV1 cells, luciferase reporter, 24 hours): 2600 nM
Emax ([3]; CV-1, versus 10 μM PPAR agonist reference compound, <20% considered negative, read-out: % efficacy in PPARγ CTF assay): 17%
Structure (SMILES): CC#C[C@@H](CC(=O)O)c1ccc(OCc2ccc3nc(-c4c(C)cccc4C)nn3c2)cc1 [Example 1, (3S)-3-[4-[[2-(2,6-Dimethylphenyl)-[1,2,4]triazolo[1,5-a]pyridin-6-yl]methoxy]phenyl]hex-4-ynoic acid]
